Measurements taken from patent US8912216B2, “Hetaryl-[1,8]naphthyridine derivatives” (Merck Patent GmbH, priority 2010, dated 2014).
Where a name gives a salt, the structure may show the parent alone. Read-outs that look alike come from different tables or passages of the source.

Columns and labels:
GST-ALK5 = target: T1, GST-ALK5 (Homo sapiens, UniProt P36897); assay: In-vitro (enzyme) kinase assay, 384-well flashplate (Example 36); type: biochemical; conditions: read-out: TβR activity (Example 36)
T1 sequence (P36897 34-503): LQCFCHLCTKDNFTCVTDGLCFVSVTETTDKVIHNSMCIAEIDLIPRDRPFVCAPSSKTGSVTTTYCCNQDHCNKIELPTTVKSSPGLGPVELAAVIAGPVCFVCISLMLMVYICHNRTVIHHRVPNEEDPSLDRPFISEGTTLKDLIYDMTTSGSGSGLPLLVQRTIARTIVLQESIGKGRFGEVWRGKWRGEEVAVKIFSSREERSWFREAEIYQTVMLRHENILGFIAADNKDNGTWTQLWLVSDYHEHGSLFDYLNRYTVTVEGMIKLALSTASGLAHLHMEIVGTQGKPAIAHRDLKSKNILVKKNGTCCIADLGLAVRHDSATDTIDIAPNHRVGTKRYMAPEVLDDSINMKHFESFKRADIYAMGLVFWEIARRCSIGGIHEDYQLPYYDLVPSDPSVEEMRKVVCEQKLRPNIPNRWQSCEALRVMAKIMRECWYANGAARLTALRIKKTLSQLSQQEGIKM
Method: In-vitro (Enzyme) Assay for Determination of the Efficacy of Inhibitors of the Inhibition of TGF-beta-Mediated Effects
The kinase assay was carried out as 384-well flashplate assay. 31.2 nM of GST-ALK5, 439 nM of GST-SMAD2 and 3 mM of ATP (with 0.3 μCi of ^33P-ATP/well) were incubated in a total volume of 35 μl (20 mM of HEPES, 10 mM of MgCl2, 5 mM of MnCl2, 1 mM of DTT, 0.1 of BSA, pH 7.4) without or with test substance (5-10 concentrations) at 30° C. for 45 min. The reaction was stopped using 25 μl of 200 mM EDTA solution, filtered with suction at room temperature after 30 min, and the wells were washed with 3 times 100 μl of 0.9% NaCl solution. Radioactivity was measured in the TopCount. The IC50 values were calculated using RS1.

[1] = tested on: TGF-beta-induced phosphorylation of Smad2 and Smad3 in Mv1-Lu cells; assay: Inhibition of Smad2/3 phosphorylation in Mv1Lu cells (Example 35A); type: cell-based, mink Mustela vison; conditions: Neogale vison, read-out: TβR activity (Example 35A)
Method: Inhibition of Smad2/3 Phosphorylation in Mv1Lu Cells by TGF-bta Receptor I Kinase Inhibitors
This assay was used to determine the inhibitory potency of compounds on TGF-beta-induced phosphorylation of Smad2 (Ser465/467) and Smad3 (Ser423/425). Mv1-Lu cells (lung epithelial cell line from mink Mustela vison; ATCC number: CCL-64) were seeded in DMEM (Invitrogen) supplemented with 10% fetal bovine serum (Pan Biotech) at a defined cell density in 24-well or 96-well plates (24-well plate: 1.5×10^5 cells per well; 96-well plate: 4×10^4 cells per well). Cell cultures were incubated in DMEM at 37° C. and 10% CO2. On the next day, the medium was replaced and cells were serum-starved for 16-20 hours. The following day, serial dilutions of compounds were added to the wells, pre-incubated for 1.5 hrs before recombinant TGF-beta 1 ligand (final concentration 5 ng/ml; R&D systems) was added. After one hour of ligand stimulation, lysates were prepared and analyzed using an enzyme-linked immunosorbent assay kit (PathScan Phospho-Smad2 Kit, Cell Signaling Technologies). The ELISA detects phosphorylated Smad2 as well as phosphorylated Smad3 with the phospho-specific antibody. TGF-beta stimulated cells and unstimulated cells served as positive and negative controls (100% and background control). The concentration of the vehicle DMSO was kept constant at 0.2% (v/v) in all wells. Dose-response relationships were fitted using curve fitting algorithms of the RS1 statistics software package (Brooks Automation Inc. RS/1—Statistical Tools Handbook. Release 6.2) to determine the concentration at which half-maximal inhibition (IC50) of Smad2/3 phosphorylation was achieved.

[2] = GST-ALK5, GST-SMAD2 substrate, 3 mM ATP, 30° C., 45 min
[3] = Mv1-Lu cells, TGF-beta 1 5 ng/ml, phospho-Smad2/3 ELISA

IC50 (GST-ALK5; [2]) [nM]	IC50 [1, 3] [nM]	Structure (SMILES)	other results
		Cc1ccn(-c2cc(-c3cncc(Br)c3)c3cccnc3n2)n1 [4-(5-Bromo-pyridin-3-yl)-2-(3-methyl-pyrazol-1-yl)-[1,8]naphthyridine]	IC50 (GST-ALK5; Table 2, intermediate, GST-ALK5 flashplate assay): > 10000 nM; IC50 ([1]; Table 2, intermediate, Smad2/3 phosphorylation in Mv1-Lu cells): > 10000 nM
1000 to 10000	1000 to 10000	Fc1ccc(Cl)cc1-c1cc(-c2cncc3ccccc23)c2ccccc2n1 [compound 1, 2-(5-Chloro-2-fluoro-phenyl)-4-isoquinolin-4-yl-quinoline]	
100 to 1000	1000 to 10000	Fc1ccc(Cl)cc1-c1cc(-c2cncc3ccccc23)c2cccnc2n1 [compound 2, 2-(5-Chloro-2-fluoro-phenyl)-4-isoquinolin-4-yl-[1,8]naphthyridine]	
1000 to 10000	> 10000	Cc1cccc(-c2cc(-c3cncc4ccccc34)c3cccnc3n2)n1 [compound 3, 4-Isoquinolin-4-yl-2-(6-methyl-pyridin-2-yl)-[1,8]naphthyridine]	
100 to 1000	100 to 1000	Fc1ccc(Cl)cc1-c1cc(-c2cncc(-c3ccccc3)c2)c2cccnc2n1 [compound 4, 2-(5-Chloro-2-fluoro-phenyl)-4-(5-phenyl-pyridin-3-yl)-[1,8]naphthyridine]	
100 to 1000	1000 to 10000	Cc1cccc(-c2cc(-c3cncc(-c4ccccc4)c3)c3cccnc3n2)n1 [compound 5, 2-(6-Methyl-pyridin-2-yl)-4-(5-phenyl-pyridin-3-yl)-[1,8]naphthyridine]	
1000 to 10000	> 10000	Fc1ccc(Cl)cc1-c1cc(-c2cncc(-c3ccccc3)c2)c2ccccc2n1 [compound 6, 2-(5-Chloro-2-fluoro-phenyl)-4-(5-phenyl-pyridin-3-yl)-quinoline]	
< 100	100 to 1000	Cn1cc(-c2cncc(-c3cc(-c4cc(Cl)ccc4F)nc4ncccc34)c2)cn1 [compound 7, 2-(5-chloro-2-fluoro-phenyl)-4-[5-(1-methyl-1H-pyrazol-4-yl)-pyridin-3-yl]-[1,8]naphthyridine]	
< 100	100 to 1000	Cn1cc(-c2cncc(-c3cc(-c4cc(C(F)(F)F)ccc4F)nc4ncccc34)c2)cn1 [compound 8, 2-(2-Fluoro-5-trifluoromethyl-phenyl)-4-[5-(1-methyl-1H-pyrazol-4-yl)-pyridin-3-yl]-[1,8]naphthyridine]	
100 to 1000	1000 to 10000	Cn1cc(-c2cncc(-c3cc(-c4cccc(Cl)c4)nc4ncccc34)c2)cn1 [compound 9, 2-(3-Chloro-phenyl)-4-[5-(1-methyl-1H-pyrazol-4-yl)-pyridin-3-yl]-[1,8]naphthyridine]	
100 to 1000	1000 to 10000	Cc1cccc(-c2cc(-c3cncc(-c4cnn(C)c4)c3)c3cccnc3n2)n1 [compound 10, 4-[5-(1-Methyl-1H-pyrazol-4-yl)-pyridin-3-yl]-2-(6-methyl-pyridin-2-yl)-[1,8]naphthyridine]	
> 10000	> 10000	Fc1ccc(Cl)cc1-c1cc(-c2cccc(-c3ccccc3)n2)c2cccnc2n1 [compound 12, 2-(5-Chloro-2-fluoro-phenyl)-4-(6-phenyl-pyridin-2-yl)-[1,8]naphthyridine]	
100 to 1000	1000 to 10000	Cn1cc(-c2cncc(-c3cc(-c4cccc(C(F)(F)F)c4)nc4ncccc34)c2)cn1 [compound 14, 4-[5-(1-Methyl-1H-pyrazol-4-yl)-pyridin-3-yl]-2-(3-trifluoromethyl-phenyl)-[1,8]naphthyridine]	
< 100	100 to 1000	Cn1cc(-c2cncc(-c3cc(-c4ccccc4F)nc4ncccc34)c2)cn1 [compound 15, 2-(2-Fluoro-phenyl)-4-[5-(1-methyl-1H-pyrazol-4-yl)-pyridin-3-yl]-[1,8]naphthyridine]	
100 to 1000	1000 to 10000	Cn1cc(-c2cncc(-c3cc(-c4ccc(F)cc4)nc4ncccc34)c2)cn1 [compound 16, 2-(4-Fluoro-phenyl)-4-[5-(1-methyl-1H-pyrazol-4-yl)-pyridin-3-yl]-[1,8]naphthyridine]	
100 to 1000	1000 to 10000	Cn1cc(-c2cncc(-c3cc(-c4cc(F)c(F)cc4F)nc4ncccc34)c2)cn1 [compound 17, 4-[5-(1-Methyl-1H-pyrazol-4-yl)-pyridin-3-yl]-2-(2,4,5-trifluoro-phenyl)-[1,8]naphthyridine]	
	100 to 1000	OCCn1cc(-c2cncc(-c3cc(-c4ccccc4F)nc4ncccc34)c2)cn1 [compound 40, 2-(4-{5-[2-(2-fluoro-phenyl)-[1,8]naphthyridin-4-yl]-pyridin-3-yl}-pyrazol-1-yl)-ethanol]	
	100 to 1000	Fc1ccccc1-c1cc(-c2cncc(-c3cnn(CCN4CCOCC4)c3)c2)c2cccnc2n1 [compound 41, 2-(2-Fluoro-phenyl)-4-{5-[1-(2-morpholin-4-yl-ethyl)-1H-pyrazol-4-yl]-pyridin-3-yl}-[1,8]naphthyridine]	
	100 to 1000	Fc1ccc(Cl)cc1-c1cc(-c2cncc(-c3cn(CCN4CCOCC4)nn3)c2)c2cccnc2n1 [compound 42, 2-(5-chloro-2-fluoro-phenyl)-4-{5-[1-(2-morpholin-4-yl-ethyl)-1H-[1,2,3]triazol-4-yl]-pyridin-3-yl}-[1,8]naphthyridine]	
100 to 1000		CN1CCC(c2nc(-c3cncc(-c4cc(-c5ccccc5F)nc5ncccc45)c3)no2)CC1 [compound 60, 2-(2-fluoro-phenyl)-4-{5-[5-(1-methyl-piperidin-4-yl)-[1,2,4]oxadiazol-3-yl]-pyridin-3-yl}-[1,8]naphthyridine]	
	1000 to 10000	Cn1ccc(-c2cncc(-c3cc(-c4ccccc4F)nc4ncccc34)c2)n1 [compound 66, 2-(2-Fluoro-phenyl)-4-[5-(1-methyl-1H-pyrazol-3-yl)-pyridin-3-yl]-[1,8]naphthyridine]	
	1000 to 10000	Cn1nccc1-c1cncc(-c2cc(-c3ccccc3F)nc3ncccc23)c1 [compound 67, 2-(2-Fluoro-phenyl)-4-[5-(2-methyl-2H-pyrazol-3-yl)-pyridin-3-yl]-[1,8]naphthyridine]	
100 to 1000		CN1CCN(c2ccnc(-c3cncc(-c4cc(-c5ccccc5F)nc5ncccc45)c3)n2)CC1 [compound 70, 2-(2-fluoro-phenyl)-4-{5-[4-(4-methyl-piperazin-1-yl)-pyrimidin-2-yl]-pyridin-3-yl}-[1,8]naphthyridine]	

Structure (SMILES)	IC50 (GST-ALK5; [2]) [nM]	IC50 [1, 3] [nM]	other results
Fc1ccc(Cl)cc1-c1cc(-c2cncc(-c3cnn(C4CCNCC4)c3)c2)c2cccnc2n1 [compound 11, 2-(5-chloro-2-fluoro-phenyl)-4-[5-(1-piperidin-4-yl-1H-pyrazol-4-yl)-pyridin-3-yl]-[1,8]naphthyridine dihydrochloride]	< 100		IC50 [1]: < 100 nM
Nc1ncc(-c2cnn(C3CCNCC3)c2)cc1-c1cc(-c2cc(Cl)ccc2F)nc2ncccc12 [compound 13, 3-[2-(5-Chloro-2-fluoro-phenyl)-[1,8]naphthyridin-4-yl]-5-(1-piperidin-4-yl-1H-pyrazol-4-yl)-pyridin-2-ylamine dihydrochloride]	< 100		IC50 [1]: < 100 nM
Fc1ccc(C(F)(F)F)cc1-c1cc(-c2cncc(-c3cnn(C4CCNCC4)c3)c2)c2cccnc2n1 [compound 18, 2-(2-Fluoro-5-trifluoromethyl-phenyl)-4-[5-(1-piperidin-4-yl-1H-pyrazol-4-yl)-pyridin-3-yl]-[1,8]naphthyridine dihydrochloride]	< 100		IC50 [1]: < 100 nM
